Experimental data: patent US9815777B2, “Metformin salts to treat Type2 diabetes” (Jiva Pharma, Inc., priority 2013, dated 2017)
Entries after “also recorded” stand apart in the source; their conditions may differ. Counter-ions that a name gives are not always drawn.

Assays:
[1] = system: Female db/db B6BKS (D) Leprdb/J mice; assay: Fasting blood glucose in db/db mouse model of diabetes, daily oral gavage; format: in vivo; conditions: for Fasting Blood Glucose (% changes from vehicle control): 6 h fast; for Blood glucose lowering compared with the equivalent dose of metformin (in words): difference not statistically significant
Text: (§1) The anti-diabetic activity of Met.TZ was examined in a standard mouse model of diabetes, in comparison to the front-line anti-diabetes drug metformin hydrochloride. Female db/db B6BKS (D) Leprdb/J mice of approximately 6.5 to 9.5 weeks old were used for this study. This is a standard genetic model of obesity related insulin resistance and diabetes, and has served as model animal for the development and analysis of many metabolically active drugs.
(§2) Two treatment groups of six female mice were administered Met.TZ (MetX), at dose levels of 44.7 mg/kg/dose or 149 mg/kg/dose. Two treatment groups of six female mice were administered the test sample TZ (X), at dose levels of 21.2 mg/kg/dose or 70.8 mg/kg/dose Two treatment groups of six female mice were administered the positive control article, metformin hydrochloride, at dose levels of 30 mg/kg/dose or 100 mg/kg/dose. One additional group of six mice served as the control and received the test article vehicle, water. All drugs and vehicle solutions were administered daily during the study via oral gavage at a dose volume of 5 mL/kg. Body weights were measured three times per week, at the time of glucose measurements.
(§3) Blood samples for glucose analysis were collected three times per week beginning on Day 1 through Day 26. Animals were fasted for 6 hours prior to glucose testing. On Days 1 through 12, the test article, positive control, and vehicle were administered after completion of the glucose testing. On Days 15 through 24 the dosing occurred approximately 90 minutes prior to glucose testing. On Day 26, a glucose tolerance test (GTT) was performed. The animals were administered a glucose solution at a dose level of 2 g/kg and a dose volume of 5 mL/kg. Blood collection for glucose measurements were collected predose, and at 0.5, 1, 1.5, 2, and 3 hours following administration of the glucose solution.

[2] = system: Female db/db B6BKS (D) Leprdb/J mice; assay: Oral glucose tolerance test (GTT) on day 26 in db/db mice; format: in vivo, mouse
Text: as §1, §2, §3

## CN(C)C(=N)NC(=N)N.O=C1CSC(=O)N1 [Met.TZ, Metformin thiazolidine-2,4-dione-3-ide]
[1]; 149 mg/kg (equivalent to metformin 100 mg/kg), from day 17 until termination of the study
  Glucose lowering activity (in words): striking glucose lowering activity
[1]; day 15 of treatment, 149 mg/kg/day oral gavage
  Fasting Blood Glucose (% changes from vehicle control): −13%
[1]; day 17 of treatment, 149 mg/kg/day oral gavage
  Fasting Blood Glucose (% changes from vehicle control): −51%
[1]; day 19 of treatment, 149 mg/kg/day oral gavage
  Fasting Blood Glucose (% changes from vehicle control): −33%
[1]; day 22 of treatment, 149 mg/kg/day oral gavage
  Fasting Blood Glucose (% changes from vehicle control): −52%
[1]; db/db mice
  Blood glucose lowering compared with the equivalent dose of metformin (in words): more effective at lowering blood glucose than the equivalent dose of metformin; also recorded: lower glucose more than the equivalent dose of metformin hydrochloride alone
[1]; db/db mice, listed as 2,4-thiazolidinedione with metformin as its salt (1:1)
  Blood glucose lowering compared with the equivalent dose of metformin (in words): enhanced the glucose lowering effect of metformin
[2]; P<0.05 by ANOVA, means of 6 animals
  GTT glucose curve versus control animals (Veh), significance: significantly different than that from control animals
[2]; every time point, 149 mg/kg/day vs metformin 100 mg/kg/day, difference not statistically significant
  Glucose levels post glucose administration compared with the equivalent dose of metformin (in words): lower glucose levels than animals treated with the equivalent dose of metformin
[2]; glucose 2 g/kg, 149 mg/kg/day
  Glucose tolerance (in words): striking improvement in glucose tolerance

## CN(C)C(=N)N=C(N)N [Metformin, metformin hydrochloride]
[1]; day 15 of treatment, 100 mg/kg/day oral gavage
  Fasting Blood Glucose (% changes from vehicle control): −9%
[1]; day 17 of treatment, 100 mg/kg/day oral gavage
  Fasting Blood Glucose (% changes from vehicle control): −34%
[1]; day 19 of treatment, 100 mg/kg/day oral gavage
  Fasting Blood Glucose (% changes from vehicle control): −7%
[1]; day 22 of treatment, 100 mg/kg/day oral gavage
  Fasting Blood Glucose (% changes from vehicle control): −43%

## O=C1CSC(=O)N1 [TZ, 2,4-thiazolidinedione]
[1]; day 15 of treatment, 70.8 mg/kg/day oral gavage
  Fasting Blood Glucose (% changes from vehicle control): +34%
[1]; day 17 of treatment, 70.8 mg/kg/day oral gavage
  Fasting Blood Glucose (% changes from vehicle control): −22%
[1]; day 19 of treatment, 70.8 mg/kg/day oral gavage
  Fasting Blood Glucose (% changes from vehicle control): +9%
[1]; day 22 of treatment, 70.8 mg/kg/day oral gavage
  Fasting Blood Glucose (% changes from vehicle control): −19%
[1]; db/db mice, same model
  Hypoglycemic activity without any metformin (in words): little effect on glucose lowering
